From article PMC7004565, “Nucleotide inhibition of the pancreatic ATP-sensitive K^+ channel explored with patch-clamp fluorometry” (eLife, 2020)
Several values for one entry are separate records, joined by “and”; a condition that tells them apart may be missing. Equal values may be shown once.

Key:
[1] = biological target: T1, Kir6.2*,C166S-GFP + SUR1 (Homo sapiens, UniProt Q14654, C166S); assay: Current inhibition in excised inside-out patches (patch-clamp fluorometry)
[2] = biological target: T1, Kir6.2*,C166S-GFP + SUR1; assay: FRET (ANAP quenching) nucleotide binding in unroofed membranes; design: ANAP labelling is specific and only full-length Kir6.2 is expressed at the cell membrane; expressed in transfected cells; host or cells: HEK-293T; settings: Hill fit
Text: To measure nucleotide binding, cells transfected with Kir6.2*-GFP + SUR1 were briefly sonicated, leaving behind unroofed plasma membrane fragments ([Heuser, 2000]; [Zagotta et al., 2016]; [Puljung et al., 2019]) containing ANAP-labelled KATP channels with the intracellular nucleotide-binding sites exposed to the bath solution. The sample was excited with a 385 nm LED and emitted fluorescence from the membrane fragments was passed through a spectrometer, allowing us to separate ANAP, GFP, and TNP-ATP fluorescence by peak wavelength (Figure 1E,F). As expected from FRET, increasing the concentration of TNP-ATP caused a decrement in the ANAP peak at 472 nm and a concomitant increase in the TNP-ATP peak at 561 nm (Figure 1F). We used the quenching of the ANAP peak as a direct measure of TNP-ATP binding as this signal was specific to KATP. In contrast, the peak TNP-ATP fluorescence may include contributions from both specific and non-specific nucleotide binding, as well as direct excitation of TNP-ATP in solution by the 385 nm excitation light. Due to the sharp cut-off of the GFP emission spectrum at shorter wavelengths, our measurements of peak ANAP fluorescence were unaffected by the presence of the GFP tag on Kir6.2.
Epifluorescence imaging and spectroscopy were performed using a Nikon Eclipse TE2000-U microscope with a 60x water immersion objective (Plan Apo VC, NA = 1.2, Nikon; Kingston upon Thames, UK) or a 100x oil immersion objective (Nikon, Apo TIRF, NA = 1.49). […] Fluorescence spectra were collected by exciting ANAP as above but using a 400 nm long-pass emission filter (ThorLabs), then passing emitted light through an IsoPlane 160 Spectrometer (Princeton Instruments; Trenton, NJ) with a 300 grooves mm^-1 grating. […]
Unroofed membranes were prepared as described previously ([Heuser, 2000]; [Zagotta et al., 2016]; [Puljung et al., 2019]). […] Unroofed membrane fragments were nearly invisible in bright-field images and identified by their GFP and ANAP fluorescence. […]
Fluorescence spectra were collected as described above. […]

[3] = biological target: Kir6.2-GFP + SUR1 (Homo sapiens, UniProt Q14654); assay: ANAP fluorescence quenching in excised patches (patch-clamp fluorometry); assay type: binding; design: full length, fully ANAP-labelled Kir6.2 protein was produced and successfully trafficked to the membrane in the presence of SUR1; expressed in transfected cells; host or cells: HEK-293T; settings: excised patches (PCF), Hill fit
Description: (§1) Currents were measured as described above.
(§2) ANAP bleaching was corrected as for the unroofed binding experiments with Equation 1 (Figure 2—figure supplement 3A). Due to the lower signal-to-noise ratio for PCF compared to the unroofed membranes, we performed experiments from both high-to-low and low-to-high TNP-ATP concentrations to minimise artifacts from our bleaching corrections.

[4] = biological target: T1, Kir6.2*,C166S-GFP + SUR1; assay: as above; assay type: binding; design: ANAP labelling is specific and only full-length Kir6.2 is expressed at the cell membrane; expressed in transfected cells; host or cells: HEK-293T; settings: excised patches (PCF), Hill fit
Description: as §1, §2

T1 sequence (Q14654 whole entry C166S): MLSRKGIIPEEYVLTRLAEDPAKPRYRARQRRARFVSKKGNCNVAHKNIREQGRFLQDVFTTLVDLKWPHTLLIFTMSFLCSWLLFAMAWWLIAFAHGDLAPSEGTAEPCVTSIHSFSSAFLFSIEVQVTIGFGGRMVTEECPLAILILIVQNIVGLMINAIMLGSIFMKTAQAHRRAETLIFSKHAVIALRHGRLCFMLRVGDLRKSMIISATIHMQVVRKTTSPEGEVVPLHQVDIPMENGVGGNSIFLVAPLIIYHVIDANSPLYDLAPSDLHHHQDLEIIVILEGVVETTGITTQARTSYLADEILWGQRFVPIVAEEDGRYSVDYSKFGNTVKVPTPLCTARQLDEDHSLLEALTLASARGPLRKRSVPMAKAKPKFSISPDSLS
T1 sequence (Q09428 whole entry partner): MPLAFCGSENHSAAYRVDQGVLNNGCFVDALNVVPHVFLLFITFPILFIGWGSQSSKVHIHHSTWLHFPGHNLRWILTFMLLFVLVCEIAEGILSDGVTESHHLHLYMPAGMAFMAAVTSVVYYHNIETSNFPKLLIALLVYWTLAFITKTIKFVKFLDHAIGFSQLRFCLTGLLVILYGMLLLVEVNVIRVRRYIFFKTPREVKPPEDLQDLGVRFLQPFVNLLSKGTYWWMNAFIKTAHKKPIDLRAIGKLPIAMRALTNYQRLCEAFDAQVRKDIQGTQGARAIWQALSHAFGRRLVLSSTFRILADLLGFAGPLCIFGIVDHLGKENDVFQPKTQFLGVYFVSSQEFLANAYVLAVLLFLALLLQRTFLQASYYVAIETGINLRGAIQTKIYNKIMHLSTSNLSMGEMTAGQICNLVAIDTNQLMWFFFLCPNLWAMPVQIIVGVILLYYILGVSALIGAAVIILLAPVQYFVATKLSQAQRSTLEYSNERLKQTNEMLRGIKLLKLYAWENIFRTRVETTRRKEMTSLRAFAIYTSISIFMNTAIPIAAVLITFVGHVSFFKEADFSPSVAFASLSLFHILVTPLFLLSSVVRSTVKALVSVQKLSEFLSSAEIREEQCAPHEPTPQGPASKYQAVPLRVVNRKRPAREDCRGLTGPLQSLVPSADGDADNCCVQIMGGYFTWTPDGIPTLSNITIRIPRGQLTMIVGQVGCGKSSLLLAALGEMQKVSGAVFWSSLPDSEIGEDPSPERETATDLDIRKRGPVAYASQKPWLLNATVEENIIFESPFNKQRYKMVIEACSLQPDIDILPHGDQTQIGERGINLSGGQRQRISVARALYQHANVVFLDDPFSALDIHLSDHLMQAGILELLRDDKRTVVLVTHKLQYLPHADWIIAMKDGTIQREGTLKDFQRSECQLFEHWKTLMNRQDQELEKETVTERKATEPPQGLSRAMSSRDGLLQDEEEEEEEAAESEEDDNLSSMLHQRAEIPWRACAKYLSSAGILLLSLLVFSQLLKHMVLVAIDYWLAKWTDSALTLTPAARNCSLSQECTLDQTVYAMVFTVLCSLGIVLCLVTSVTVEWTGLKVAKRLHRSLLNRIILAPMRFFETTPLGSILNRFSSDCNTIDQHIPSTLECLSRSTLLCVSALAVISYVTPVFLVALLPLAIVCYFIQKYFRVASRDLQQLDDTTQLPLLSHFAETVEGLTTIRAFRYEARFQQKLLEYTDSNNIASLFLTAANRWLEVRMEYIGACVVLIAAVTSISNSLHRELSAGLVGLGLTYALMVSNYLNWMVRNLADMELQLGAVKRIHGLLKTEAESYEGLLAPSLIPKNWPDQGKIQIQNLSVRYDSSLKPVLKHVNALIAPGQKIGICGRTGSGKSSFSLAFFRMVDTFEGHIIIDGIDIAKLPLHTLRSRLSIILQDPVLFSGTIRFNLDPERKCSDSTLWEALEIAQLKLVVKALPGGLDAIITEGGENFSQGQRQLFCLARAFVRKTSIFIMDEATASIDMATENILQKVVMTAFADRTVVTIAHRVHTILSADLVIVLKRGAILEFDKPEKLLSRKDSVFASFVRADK
Sequence of Kir6.2-GFP + SUR1 (Q14654 whole entry): as the sequence (Q14654 whole entry C166S) above, with S166C counted along it
Sequence of Kir6.2-GFP + SUR1 (Q09428 whole entry partner): as the sequence (Q09428 whole entry partner) above

`Nc1ncnc2c1ncn2[C@@H]1O[C@H](COP(=O)(O)OP(=O)(O)OP(=O)(O)O)[C@H]2OC3(O[C@H]21)C([N+](=O)[O-])=CC(=[N+]([O-])[O-])C=C3[N+](=O)[O-]` (some centres unmarked) [TNP-ATP, trinitrophenyl-ATP] was tested, and the IC50 [1] was 776 µM, the “h (Hill coefficient) current inhibition” value ([1]; excised inside-out patches, Mg2+-free, Hill fit) was 1.35 and the “h (Hill coefficient) fluorescence quenching” value [2] was 0.92. The Emax ([2]; fraction, read-out: Emax fluorescence quenching) was 96%, the EC50 ([2]; n = 12, read-out: EC50 fluorescence quenching) was 32 µM and 31.6 µM and the “h (Hill coefficient) fluorescence quenching” value [3] was 0.87. The Emax ([3]; fraction) was 100%, the EC50 ([3]; n = 9) was 77.7 µM and 77.6 µM and the “h (Hill coefficient) fluorescence quenching” value [4] was 0.84. For the same compound, the Emax ([4]; fraction) was 100% and the EC50 ([4]; n = 6) was 67.6 µM.
